# System: human airway smooth muscle (HASM) cells
# Assay: High-throughput traction microscopy (HTTM): RMS traction of HASM cell monolayers on gel in 96-well plates, before and after adding drug
# Assay type: cell-based
# Conditions: for normalized traction (RMS traction after adding drug/RMS traction before adding drug): control drugs on zero-hit drug plate, FIG. 14; for change in cellular contraction (RMS traction) with increasing doses: FIG. 13, control drugs
# Procedure: Acrylamide gels with 1.8 kPa stiffness and 200-μm thickness were made in 96-well plates, fluorescent markers were coated in a single layer (0.2 μm) onto gel surfaces, and the gel plates were mounted on a fluorescent microscope with motorized stage. On each gel, HASM cells from a single donor were cultured to near confluence. Each well was seeded with 20,000 cells and was serum deprived for 2 days. FIG. 9 illustrates an example layout of a multiwell plate. Imaging of the fluorescent markers included 10× magnification, at 37° C. Three rounds of imaging was performed per plate. For each imaging, two florescent images and one phase image was acquired. Since a common problem for circular shape dishes is rotation of wells, the multi-well plate is optionally a rectangular shape, so that one can easily find the same location in each well. Images of fluorescent markers in each well are taken before cell seeding. In addition, one can store the exact z-position of best sensor focus on each well. It is known that the multi-well plate may not be perfectly flat (e.g., there can be sagging in the middle of the plate). In addition, small changes in sensor depth focus can jeopardize image quality and in turn, traction calculation. Therefore, a prescanning step can aid in screening. After prescanning, wells are seeded with cells and a regular cell culture protocol can be followed. In example 3, a baseline-scanning typically takes fifteen minutes. Drugs can be added and the plates can be incubated for a certain time (e.g., in example 3, incubation occurred over a period of one hour). After incubation, a drug-scan can occur. Thus, three images (prescan, baseline-scan, and drug-scan) are acquired. FIG. 7 is a series of images illustrating a set of three example acquired images. At 700 is a fluorescent image of a bottom bead (0.5 μm). At 710 is a phase contrast image. At 720 is a fluorescent image of a yellow/green bead 0.2 μm. Root mean square values of the absolute traction forces were calculated before and after adding drugs. FIG. 10 illustrates an example process flow diagram 1000 for high-throughput screening using cellular contraction. For example, using the process illustrated in FIG. 10 and a 96 well plate, each scan takes approximately 15 minutes. Since each plate goes through a baseline scan, drug incubation (60 minutes), and a drug scan, it takes approximately 90 minutes per plate. Drug-induced changes in traction provide a simple and physiologically relevant index to identify hits, i.e., those molecules that appreciably reduce cellular traction forces. FIG. 8 is a series of images illustrating six absolute cell traction maps. At 800-850 are cell traction maps for 0.5% Dimethylsulfoxide (DMSO), 1% Fetal Bovine Serum (FBS), 10 μM Y27632, both before and after adding drugs. Y27632 is an inhibitor of the Rho-associated protein kinase, which is known to reduce cellular contraction. […] The treatment of 1% FBS increased RMS traction by 77% from the baseline. The treatment of 10 uM Y-27632 decreased RMS traction by 71% from the baseline. The ratio of RMS tractions of before and after drug treatment (or, normalized contraction) is an index to evaluate the effects of drugs in both stiffening and softening responses.
Structure (SMILES),normalized traction (RMS traction after adding drug/RMS traction before adding drug),"decrease in cellular contraction (increasing doses of isoproterenol, FIG. 13)",change in cellular contraction (RMS traction) with increasing doses,"normalized traction (iso 50 μM, FIG. 12)","measured change in RMS traction (ratio of RMS tractions before and after drug treatment, normalized contraction) (10 μM Y27632, FIG. 8)",decrease of RMS traction from the baseline (10 uM Y-27632)
CC(C)NCC(O)c1ccc(O)c(O)c1 (centres unmarked) [isoproterenol],decreased traction,more than 50%,did not appear dose dependent,below 0.5,,
C[C@@H](N)[C@H]1CC[C@H](C(=O)Nc2ccncc2)CC1 [Y27632],decreased traction,,decreasing cellular contraction in a dose dependent manner,,0.29,71%
